Nine compounds from patent US20140171404A1, “Autotaxin inhibitors” (NOVARTIS AG, priority 2012, published 2014) can be followed below.

The target of this assay is T1, Recombinant human ATX (Homo sapiens, UniProt Q13822).
T1 construct: made in house; host or cells: human embryonic kidney (HEK) cells
The experiment in a line: Assessing ATX inhibition: released choline, Amplex Red fluorescence. Type of assay: biochemical. Conditions: read-out: IC50. As for the experimental part: LPC (oleoyl (18:1)) was purchased from Avanti Polar Lipids (Alabaster; AL) and solubilized in methanol to 20 mM. Amplex Red was obtained from Invitrogen Life Technologies (Paisley, UK) and dissolved in DMSO to 10 mM. Choline oxidase and horseradish peroxidase (HRP) were obtained from Sigma Aldrich (Dorset, UK) and dissolved in HBSS to 20 U/ml and 200 U/ml respectively. All reagents were stored at −20° C. in single use aliquots. All experimental measurements were performed in assay buffer made up immediately prior to use (HBSS, 0.01% BSA essentially fatty acid free).
Recombinant human ATX was prepared at Novartis (Basel, CH) in a human embryonic kidney (HEK) cell preparation, and stored in single use aliquots of […] (26 μM) stocks stored at −80° C.
All experimental measurements were performed in black 384 well polystyrene (low volume, round bottom, Corning (3676)) plates. PerkinElmer EnVision (Fluorescence Intensity/Absorbance Monochromator) or Tecan Infinite 200 PRO series plate reader was used to detect change in fluorescent intensity.
ATX activity was determined by measurement of released choline in reactions containing ATX (10 nM), choline oxidase (0.1 U/ml), HRP (100 U/ml), amplex red (50 μM) and LPC 18:1 (10 μM). Compounds of the invention were prepared as 10 point serial dilutions from 1 μM in duplicate and pre-incubated with ATX at 37° C. for 20 minutes prior to the addition of remaining reagents. The liberated choline was measured from changes in fluorescence intensity (λex 530 nm, λem 590 nm) of the product resurofin at 37° C. every 2 minutes over a 40-minute period. ATX activity was measured as a slope of the linear portion of the progress curve, typically between 14 to 24 minutes.
Slope data was exported to Graphpad prism (Graphpad software, San Diego, Calif.) where data was fitted to equation 1.
Y=Bottom+(Top−Bottom)/(1+10̂((Log IC50−X)*HillSlope)) Equation 1: […]

[1] abbreviates: ATX 10 nM, LPC 18:1 10 μM, pre-incubated with ATX at 37° C. for 20 minutes, Table 1, exemplified compounds.
Where [2] appears, read: same assay, compounds outside the scope of the invention.

The structures appear in SMILES notation. Read-outs that look alike come from different tables or passages of the source.

As usually defined, the IC50 is the concentration that gives 50% inhibition.

For `N#Cc1cc(COC(=O)N2CCC(NC(=O)CCCc3c[nH]nn3)CC2)cc(OC(F)(F)F)c1` [Example 70, 3-Cyano-5-(trifluoromethoxy)benzyl 4-(4-(1H-1,2,3-triazol-4-yl)butanamido)piperidine-1-carboxylate], the IC50 under setting [1] turned out to be 5 nM.
Still for that read-out and setting: with `Cc1cc(C#N)cc(COC(=O)N2CCC(NC(=O)CCCc3c[nH]nn3)CC2)c1` [Example 71, 3-Cyano-5-methylbenzyl 4-(4-(1H-1,2,3-triazol-4-yl)butanamido)piperidine-1-carboxylate] the figure was 13 nM.
Still for that read-out and setting: for `N#Cc1cc(COC(=O)N2CCC(NC(=O)CCCc3c[nH]nn3)CC2)cc(Cl)c1Cl` [Example 72, 3,4-Dichloro-5-cyanobenzyl 4-(4-(1H-1,2,3-triazol-4-yl)butanamido)piperidine-1-carboxylate] the value was 7 nM; for `O=C(CCCc1c[nH]c(=O)s1)NC1CCN(C(=O)OCc2cc(Cl)cc(Cl)c2)CC1` [Example 73, 3,5-Dichlorobenzyl 4-(4-(2-oxo-2,3-dihydrothiazol-5-yl)butanamido)piperidine-1-carboxylate], 2 nM; for `O=C(CCCc1nnn[nH]1)NC1CCN(C(=O)OCc2cc(Cl)cc(Cl)c2)CC1` [Example 74, 3,5-Dichlorobenzyl 4-(4-(1H-tetrazol-5-yl)butanamido)piperidine-1-carboxylate], 21 nM.
Same read-out and setting: with `N#Cc1cc(Cl)cc(COC(=O)N2CCC(NCCCCc3c[nH]nn3)CC2)c1` [Example 75] the figure was 29 nM.
With `O=C(NCC1CCN(C(=O)OCc2cc(Cl)cc(Cl)c2)CC1)c1cc(O)no1` [reference compound], the IC50 under setting [2] was > 1000 nM.
The same measure, in the same setting: with `O=C(/C=C/c1c[nH]cn1)N1CCN(C2CCN(C(=O)CCc3ccc(C(F)(F)F)cc3)CC2)CC1` [reference compound] the figure was > 5500 nM; with `O=C(CCCc1c[nH]nn1)NC1CCN(C(=O)OCc2ccccc2)CC1` [reference compound], 1390 nM.
